Results from article PMC6359675, “Functionalization of the Chalcone Scaffold for the Discovery of Novel Lead Compounds Targeting Fungal Infections” (Molecules, 2019).
Values joined by “and” are separate entries in the source; they are usually repeats but may differ in a detail not shown here. Identical values can stand only once. Like-named read-outs stand apart in the source and are kept apart here.

Key:
C. albicans ATCC 10231 = experiment: In vitro susceptibility testing, microdilution broth (EUCAST), C. albicans control strain; assay type: cell-based, Candida albicans; conditions: for inhibition at 100 µM / IC50: Candida albicans; for inhibition at 100 µM: ATCC10231, 24 h; for inhibition at 100 µM / antifungal activity against C. albicans growth, in words: C. albicans ATCC 10231; for antifungal activity against C. albicans growth, in words: screen at 100 μM; for IC50: ATCC10231, C. albicans ATCC 10231, mean and 95% confidence interval
Protocol: (§1) The in vitro antifungal activity of the chalcones was evaluated by a microdilution broth method in accordance with the guidelines provided by the EUCAST Edef 7.3 [22]. Briefly, all strains were cultured on Sabauraud dextrose, then inocula, prepared at 0.5 McFarland, were diluted 1:20 in RPMI-1640 medium (Gibco®, ThermoFisher Scientific Inc., Waltham, MA, USA), containing glucose 2%, 0.3% levo-glutamine buffered to pH 7.0 with 0.165 M 3-(N-morpholino)propanesulfonic acid (MOPS) to yield 1-5 × 10^5 cells/mL. A total of 100 µL of the yeast suspension was inoculated in a 96-well microplate and incubated with 100 µL of serially 2-fold dilution of the compound in the range 200–6.25 µM. The following controls were included: yeast suspensions incubated in RPMI-1640 culture medium (positive growth control), or supplemented with dilutions of DMSO, or fluconazole (Sigma-Aldrich, St. Louis, MO, USA) as a commercial drug. To check the background turbidity of reagents and the sterility of the procedure, dilutions of each compound were incubated in RPMI-1640 culture medium, without yeast inoculum. The inoculated plate was incubated at 37 °C for 24 h, and subsequently the optical density at 630 nm was measured by the Multiskan Ascent microplate reader (Thermo Fisher Scientific Inc.). The effectiveness of the compounds was expressed as percent inhibition relative to the positive growth control when the inhibition […] the 50% at 100 µM. The IC50 value was determined by interpolation of the dose–response curves generated by plotting the percentages of growth inhibition, relative to the drug-free control (set to 100% of growth), as a function of the tested concentrations (on a logarithm scale). Statistical analysis was carried out by the nonlinear regression method using GraphPad Prism version 5.0 for Windows (GraphPad Software, San Diego, CA, USA). All assays were performed in triplicate and at least two independent experiments were carried out.

[1] = Cytotoxicity test on Vero cells (WST8/CCK-8 cell viability); assay type: cell-based, African green monkey; conditions: African green monkey, Vero cells (ATCC CCL-81), Vero cells, mean and 95% confidence interval
Protocol: African green monkey kidney cells (Vero ATCC CCL-81) were cultured in Eagle’s Minimal Essential Medium (MEM) (Sigma-Aldrich), supplemented with 10% fetal bovine serum (FBS) (Carlo Erba Reagents, Milan, Italy), 100 U/mL penicillin, and 100 µg/mL streptomycin at 37 °C with 5% CO2. For experiments, cells were seeded into 96-well plates at 10^4 cells/well, and incubated at 37 °C for 24 h. Following washes with PBS, cell monolayer was incubated with 100 µL of serially 2-fold dilution of the compound in the range 200–6.25 µM. Both untreated cells and cells incubated with medium containing solvent dilutions were included in each experiment as controls.
The cell viability was assessed by a WST8-based assay according to the manufacturer’s instructions (CCK-8, Cell Counting Kit-8, Dojindo Molecular Technologies, Rockville, MD, USA). After 72 h of incubation, culture medium was removed from each well, the monolayer was washed with PBS, and 100 µL of fresh medium containing 10 µL of CCK-8 solution were added. Following a 2 h at 37 °C, the absorbance was measured at 450/630 nm; data were calculated as the percentage of the cell viability relative to the untreated controls.

C. albicans = experiment: In vitro susceptibility testing, C. albicans clinical isolate; assay type: cell-based; conditions: Candida albicans; clinical isolate; mean and 95% confidence interval; read-out: IC50 C. albicans
Excerpt: (§2) The yeasts included in the present study were Candida albicans ATCC 10231 (American Type Culture Collection) and a collection of yeasts recovered from a variety of clinical specimens, i.e., blood, urine, genital swabs, bronchoalveolar lavage, nail specimens, collected at the Microbiology Unit, St. Orsola Malpighi University Hospital, Bologna, Italy. The clinical strain isolates were identified by standard procedures, including colony morphology on chromogenic agar (CHROMagar Candida medium, Becton Dickinson, Heidelberg, Germany) and confirmed by MALDI Biotyper System using matrix-assisted laser desorption ionization–time of flight mass spectrometry (MALDI-TOF MS, Bruker Daltonik, GmbH, Germany).
as §1

C. parapsilosis = experiment: In vitro susceptibility testing, C. parapsilosis clinical isolate; assay type: cell-based; conditions: Lodderomyces parapsilosis; clinical isolate; read-out: IC50 C. parapsilosis
Excerpt: as §2, §1

C. lusitaniae = experiment: In vitro susceptibility testing, C. lusitaniae clinical isolate; assay type: cell-based; conditions: Clavispora lusitaniae; clinical isolate; read-out: IC50 C. lusitaniae
Excerpt: as §2, §1

C. tropicalis = experiment: In vitro susceptibility testing, C. tropicalis clinical isolate; assay type: cell-based; conditions: Candida tropicalis; clinical isolate; read-out: IC50 C. tropicalis
Excerpt: as §2, §1

C. krusei = experiment: In vitro susceptibility testing, C. krusei clinical isolate; assay type: cell-based; conditions: Pichia kudriavzevii; clinical isolate; read-out: IC50 C. krusei
Excerpt: as §2, §1

C. glabrata = experiment: In vitro susceptibility testing, C. glabrata clinical isolate; assay type: cell-based; conditions: Nakaseomyces glabratus; clinical isolate; read-out: IC50 C. glabrata
Excerpt: as §2, §1

C. utilis = experiment: In vitro susceptibility testing, C. utilis clinical isolate; assay type: cell-based; conditions: Williopsis jadinii; clinical isolate; read-out: IC50 C. utilis
Excerpt: as §2, §1

C. neoformans = experiment: In vitro susceptibility testing, C. neoformans clinical isolate; assay type: cell-based; conditions: Cryptococcus neoformans; clinical isolate; read-out: IC50 C. neoformans
Excerpt: as §2, §1

S. clavata = experiment: In vitro susceptibility testing, S. clavata clinical isolate; assay type: cell-based; conditions: clinical isolate; read-out: IC50 S. clavata
Excerpt: as §2, §1

R. mucilaginosa = experiment: In vitro susceptibility testing, R. mucilaginosa clinical isolate; assay type: cell-based; conditions: clinical isolate; read-out: IC50 R. mucilaginosa
Excerpt: as §2, §1

SMILES	inhibition at 100 µM (C. albicans ATCC 10231)	antifungal activity against C. albicans growth, in words (C. albicans ATCC 10231)	melting point	IC50 (C. albicans ATCC 10231; read-out: IC50)	IC50 (C. albicans ATCC 10231; read-out: IC50 [μg/mL])	CC50 at 72 h ([1]; read-out: CC50)	CC50 at 72 h ([1]; read-out: CC50 [μg/mL])	IC50 (C. albicans)	IC50 (C. parapsilosis)	IC50 (C. lusitaniae)	IC50 (C. tropicalis)	IC50 (C. krusei)	IC50 (C. glabrata)	IC50 (C. utilis)	IC50 (C. neoformans)	IC50 (S. clavata)	IC50 (R. mucilaginosa)
C#CCOc1ccc(C(=O)/C=C/c2ccc(Cl)cc2Cl)c(OCC#C)c1 [Compound 23, (E)-1-(2,4-bis(prop-2-yn-1-yloxy)phenyl)-3-(2,4-dichlorophenyl)prop-2-en-1-one]	4.6 ± 13.8%	inactive	166 to 168 °C														
CC(C)=CCOc1ccc(C(=O)/C=C/c2ccncc2)cc1 [Compound 33, (E)-1-(4-((3-methylbut-2-en-1-yl)oxy)phenyl)-3-(pyridin-4-yl)prop-2-en-1-one]	< 1%	devoid of any effect	91 to 93 °C														
O=C(/C=C/c1ccccc1)c1cc(Cl)ccc1O [Compound 1, (E)-1-(5-Chloro-2-hydroxyphenyl)-3-phenylprop-2-en-1-one]	65.2 ± 3.9%			52.8 µM	13.7 µg/mL	174 µM	45 µg/mL	62.9 µM and 16.3 µg/mL	200 µM and 51.7 µg/mL	100 µM and 25.9 µg/mL	200 µM and 51.7 µg/mL	200 µM and 51.7 µg/mL	200 µM and 51.7 µg/mL	84.5 µM and 21.9 µg/mL	26.4 µM and 6.8 µg/mL	200 µM and 51.7 µg/mL	83.7 µM and 21.7 µg/mL
CC(C)=CCOc1ccc(C(=O)/C=C/c2ccc(Cl)cc2Cl)c(O)c1 [Compound 19, (E)-3-(2,4-dichlorophenyl)-1-(2-hydroxy-4-((3-methylbut-2-en-1-yl)oxy)phenyl)prop-2-en-1-one]	5.9 ± 5.7%	inactive	191 to 193 °C														
O=C(/C=C/c1cccc(F)c1)c1cc(Cl)ccc1O [Compound 3, (E)-1-(5-Chloro-2-hydroxyphenyl)-3-(3-fluorophenyl)prop-2-en-1-one]	64.8 ± 1.5%			57.7 µM	16 µg/mL	152 µM	42 µg/mL	100 µM and 27.7 µg/mL	41.5 µM and 11.5 µg/mL	38.5 µM and 10.7 µg/mL	> 200 µM and > 55.3 µg/mL	> 200 µM and > 55.3 µg/mL	> 200 µM and > 55.3 µg/mL	100 µM and 27.7 µg/mL	35.2 µM and 9.7 µg/mL	37.2 µM and 10.3 µg/mL	> 200 µM and > 55.3 µg/mL
